In patent US7696243B2, “Pyrrolidin-2-one derivatives for use as DP1 receptor agonists” (Merck Serono, S.A., priority 2004, dated 2010):
Entries after “also recorded” stand apart in the source; their conditions may differ.

Key:
h-DP1 [1] = target: T1, h-DP1 (Homo sapiens, UniProt Q13258); assay: Whole cell second messenger (cAMP) assay on cells expressing DP1; assay type: cell-based
T1 construct: expressed in transfected cells; host or cells: HEK293-EBNA
T1 sequence (Q13258 1-359): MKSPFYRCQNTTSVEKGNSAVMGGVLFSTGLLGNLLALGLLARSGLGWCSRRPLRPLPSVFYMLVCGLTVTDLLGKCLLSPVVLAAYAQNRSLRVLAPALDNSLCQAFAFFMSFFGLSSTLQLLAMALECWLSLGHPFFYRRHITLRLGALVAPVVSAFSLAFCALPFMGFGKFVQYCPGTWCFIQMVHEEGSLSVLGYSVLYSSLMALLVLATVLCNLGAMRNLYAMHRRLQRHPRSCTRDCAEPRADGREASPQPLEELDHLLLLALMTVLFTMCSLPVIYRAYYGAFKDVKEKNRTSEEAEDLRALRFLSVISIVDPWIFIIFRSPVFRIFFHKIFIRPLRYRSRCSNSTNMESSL
Protocol: Whole cell second messenger assays measuring stimulation (EP2, EP4, DP1, DP2 and IP in HEK 293(ebna) cells) or inhibition (EP3 in human erythroleukemia (HEL) cells) of intracellular cAMP accumulation or mobilization of intracellular calcium (EP1, FP and TP in HEK 293(ebna) cells stably transfected with apo-aequorin) are performed to determine whether receptor ligands are agonists or antagonists. For cAMP assays, cells are harvested and resuspended in HBSS containing 25 mM HEPES, pH 7.4. Incubations contain 100 μM RO-20174 (phosphodiesterase type IV inhibitor, available from Biomol) and, in the case of the EP3 inhibition assay only, 15 μM forskolin to stimulate cAMP production.
Samples are incubated at 37° C. for 10 min, the reaction is terminated and cAMP levels are then measured. For calcium mobilization assays, cells are charged with the co-factors reduced glutathione and coelenterazine, harvested and resuspended in Ham's F12 medium. Calcium mobilization is measured by monitoring luminescence provoked by calcium binding to the intracellular photoprotein aequorin. Ligands are added in dimethylsulfoxide which is kept constant at 1% (v/v) in all incubations.
For agonists, second messenger responses are expressed as a function of ligand concentration and both EC50 values and the maximum response as compared to a prostanoid standard are calculated. For antagonists, the ability of a ligand to inhibit an agonist response is determined by Schild analysis and both KB and slope values are calculated.
In another exemplary protocol, HEK293-EBNA cells transfected with the appropriate receptors are seeded in 96 well opaque plate (Costar #3917) at 4×10^4 cells per well in 100 μl of culture medium (D-MEM/F12 supplemented with 10% FBS, […] L-glutamine, and 250 μg/ml of hygromycin; all from GibcoBRL) and incubated at 37° C. After overnight incubation, the medium was removed from each well and replaced with 45 μl of assay medium consisted of phenol red free D-MEM/F-12, 0.1% BSA (GibcoBRL) and 0.1 mM 3 isobutyl-1-methyl-xanthine (Sigma). After 15 minutes of incubation at 37° C., 16-16-dimethyl PGE-2 or compounds at desired concentrations in 20 μl of assay medium were added to cells and further incubated at 37° C. for 1 hour. Total cAMP (intra- and extracellular) was measured by using a cAMP-screen ELISA System (Tropix #CS1000).

h-DP2 = target: T2, h-DP2 (Homo sapiens, UniProt Q9Y5Y4); assay: Prostanoid receptor binding assay, DP2; conditions: n = 2
T2 construct: expressed in transfected cells; host or cells: HEK 293(ebna) cells or other stably transfected cells; membranes
T2 sequence (Q9Y5Y4 1-395): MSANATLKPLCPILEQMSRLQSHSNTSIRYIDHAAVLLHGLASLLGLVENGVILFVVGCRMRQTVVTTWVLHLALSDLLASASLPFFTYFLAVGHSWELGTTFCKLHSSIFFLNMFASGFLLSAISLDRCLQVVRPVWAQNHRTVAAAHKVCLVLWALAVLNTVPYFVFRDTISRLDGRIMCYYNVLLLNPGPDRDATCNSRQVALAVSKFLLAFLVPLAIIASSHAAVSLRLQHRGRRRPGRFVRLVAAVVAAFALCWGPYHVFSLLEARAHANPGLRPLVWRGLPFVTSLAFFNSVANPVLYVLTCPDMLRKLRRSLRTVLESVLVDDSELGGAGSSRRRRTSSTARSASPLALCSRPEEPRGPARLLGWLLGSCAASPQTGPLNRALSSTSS
Protocol: (§1) HEK 293(ebna) cells or other cells stably transfected with the appropriate receptor are maintained in culture, harvested and membranes are prepared by differential centrifugation, following lysis of the cells in the presence of protease inhibitors, for use in receptor binding assays.
(§2) Prostanoid receptor binding assays are performed in 10 mM MES/KOH (pH 6.0) (EPs, FP and TP) or 10 mM HEPES/KOH (pH 7.4) (DP and IP), containing 1 mM EDTA, 10 mM divalent cation and the appropriate radioligand for the given receptor. The reaction is initiated by addition of membrane protein. Typically, the ligands are added in a solvent such as dimethylsulfoxide which is kept constant at 1% (v/v) in all incubations. Non-specific binding is determined in the presence of 1 μM of the corresponding non-radioactive prostanoid. Incubations are conducted for 60 min at room temperature or 30° C. and terminated by rapid filtration. Specific binding is calculated by subtracting non-specific binding from total binding. The residual specific binding at each ligand concentration is calculated and expressed as a function of ligand concentration in order to construct sigmoidal concentration-response curves for determination of ligand affinity.
(§3) In another protocol, compounds of the invention are tested in DP1 receptor binding assay of the following protocol. A mixture containing 20 μg of DP1 receptor membranes, 0.5 mg of wheat germ agglutinin coated PVT-SPA beads, plus or minus a test compound of the invention (25 μl per well) or 10 μM of cold PGE2 at 1% DMSO and 20 nM radiolabeled ligand for the receptor (e.g., tritiated-PGE2) in assay buffer containing 25 mM MES, 10 mM MgCl2, 1 mM EDTA, pH 6.0 are incubated in Corning 3600 plates on a plate shaker for 2 hrs at room temperature. Binding of the radiolabeled ligand binding is evaluated by counting the plates on the top count using the 3H SPA dpm2 program. % Binding and Ki value for inhibitors are calculated based on the one site competition parameter using the Graphpad® prism program. Such an assay may be modified by employing the different receptors and their specific ligands to assess the activity of the compounds of the present invention against such receptors. Using such an assay, the DP1 Ki values for a number of exemplary compounds of the present invention were calculated and are shown in Table 1.

h-DP1 [2] = target: T1, h-DP1; assay: DP1 receptor binding assay (SPA, receptor membranes)
Protocol: as §1, §2, §3

[3] = system: human penile cavernosal tissue strips; assay: Organ bath: relaxation of human penile cavernosal tissue strips after contraction with phenylephrine
Protocol: Human tissue procurement. Cavernosal tissue is obtained from patients undergoing penile prosthesis implantation surgery for treatment of erectile dysfunction. In the operating room, biopsies of the corpora cavernosa are immediately placed in chilled (4° C.) physiologic salt solution and transported to the laboratory. Tissue strips, measuring approximately 3 mm×3 mm×10 mm, are cut and prepared for organ bath studies.
Preparation of compound stock solutions and dose responses. PGE1 (Cayman Chemical Co., Ann Arbor, Mich.) is stored at −20° C. in solid form until the day of use. Stock solutions are made by adding 1 ml of 70% DMSO to a vial containing 1 mg of PGE1. Compounds of the invention are dissolved in 1 ml of 70% DMSO, divided into 100 μl aliquots and stored at −20° C. until use. For dose responses in organ baths, stock solutions of PGE1 and compounds of the invention are diluted with 70% DMSO to make the highest concentration and then serially diluted with 2% DMSO for all other doses. In a typical dose response curve, the concentration of DMSO is checked to remain below […] in the 25 ml bath and to not exceed 0.5% at the highest dose.
Organ bath studies. Human or rabbit cavernosal tissue strips are mounted onto a fixed support with silk ties and attached to a tension transducer (model FT03; GrassTelefactor, Astro-Med, Inc. West Warwick, R.I.) with a rigid metal wire. After mounting, tissue strips are immersed in 25 ml baths of physiologic salt solution (PSS; 118.3 mM NaCl, 4.7 mM KCl, 0.6 mMMgSO4, 1.2 mMKH2PO4, 2.5 mMCaCl2, 25 mMNaHCO3, 0.026 mM CaNa2EDTA, 11.1 mM glucose). The solution is gassed with 95% […]/5% CO2 to attain a pH of 7.4 and the temperature is maintained at 37° C. All tissue strips are treated with 3 μM indomethacin to inhibit endogenous prostanoid production and minimize spontaneous contractile activity. The corpus cavernosum tissue is stretched incrementally and the optimal resting isometric tension for contraction is determined. After every 3-4 stretches (1 g tension/stretch), the tissue is contracted with 1 μM phenylephrine. When the amplitude of the phenylephrine-induced contraction is within 10% of the previous contraction, that tension is considered optimal for isometric contraction. All tissue strips are extensively washed with fresh PSS. Tissue strips are then contracted with 1 μM phenylephrine. After stable tone is achieved, tissue strips are exposed to increasing concentrations of PGE1 or compounds of the invention.
Data analysis. At the end of each experiment, all tissue strips are treated with 10 μM papaverine and 10 μM nitroprusside to induce maximal relaxation (100%). The total amount of relaxatory response over the range of drug concentrations tested is determined by the area under the plotted curves. EC50 values are calculated using Prism software (GraphPad, San Diego, Calif.). For final analysis of data, relaxation parameters are compared using ANOVA. If the ANOVA p-value is less than 0.05, paired post-test comparisons is carried out using the Tukey-Kramer test.

rabbits = assay: In vivo intracavernosal injection, erectile response (ICP/SAP); conditions: rabbit
Protocol: DP agonists were solubilized in 40% propylene glycol and administered by intracavernosal injection to deliver the indicated dose in 0.1 ml total volume. Since penile intracavernosal pressure (ICP) is ultimately limited by the systemic arterial pressure (SAP), all erectile responses were normalized by calculating the ration of ICP/SAP.

[4] = after contraction with phenylephrine

With `O=C(O)CCCCCC[C@H]1CCC(=O)N1CCC(O)C1CCCCC1` (stereo in doubt) [Example 4, 7-{(2S)-1-[(3R)-3-cyclohexyl-3-hydroxypropyl]-5-oxopyrrolidin-2-yl}heptanoic acid] the EC50 (h-DP1 [1]) was 1.38 nM, the Ki (h-DP2) was > 10000 nM and the Ki (h-DP1 [2]) was 47.2 nM.

`O=C(O)CCCCCCC1C(=O)NC(=O)N1CCC(O)C1CCCCC1` (stereo not shown) [BW245C, reference compound] gave an EC50 (h-DP1 [1]) of 0.031 nM and an EC50 [3, 4] of 59 nM.

With `O=C(O)c1ccc(CCC[C@H]2CCC(=O)N2CC[C@@H](O)C2CCCCC2)cc1` [Example 1, 4-(3-(2S)-1-[(3R)-3-cyclohexyl-3-hydroxypropyl]-5-oxotetrahydro-1H-2-pyrrolylpropyl)benzoic acid] the EC50 ([3]; Homo sapiens, after contraction with phenylephrine) was 29 nM, the “Relaxation of human penile cavernosal tissue strips (in words)” value [3, 4] was “dose-dependent relaxation” and the “Extent of relaxation (maximal effect) versus BW245C” value ([3]; human cavernosal tissue) was “greater”. For the same molecule, the Systemic blood pressure (rabbits; any dose) was “no overt changes”, the Arterial pressure (rabbits; intracavernosal) was “remained constant” and the “Duration of transient episodes of penile tumescence” value (rabbits; intracavernosal) was 1 to 3 min. The “ICP/SAP (peak response or AUC) compared to vehicle” value (rabbits; intracavernosal) was “dose-dependant increases”, the “Penile response at highest dose” value (rabbits; intracavernosal, 5 μg, single animals) was “repeated and transient episodes of spontaneous penile tumescence; also recorded: penile resistance arteries were fully dilated” and the “Penile tumescence after intracavernosal injection” value (rabbits; intracavernosal, 40% propylene glycol) was “sustained periods of penile tumescence or transient episodes”. For the same molecule, the Ki (h-DP2) was > 10000 nM and the Ki (h-DP1 [2]) was 2.4 nM.

`O=C(O)c1ccc(CCC[C@H]2CCC(=O)N2CC[C@H](O)C2CCCCC2)cc1` [Example 2, 4-(3-(2S)-1-[(3S)-3-cyclohexyl-3-hydroxypropyl]-5-oxotetrahydro-1H-2-pyrrolylpropyl)benzoic acid] was tested, and the EC50 (h-DP1 [1]) was 0.71 nM, the Ki (h-DP2) was > 10000 nM and the Ki (h-DP1 [2]) was 10.5 nM.

With `O=C(O)CCCCCC[C@H]1CCC(=O)N1CC[C@@H](O)C1CCCCC1` [Example 3, 7-{(2S)-1-[(3R)-3-cyclohexyl-3-hydroxypropyl]-5-oxopyrrolidin-2-yl}heptanoic acid] the EC50 (h-DP1 [1]) was 0.037 nM, the Ki (h-DP2) was > 10000 nM and the Ki (h-DP1 [2]) was 1.8 nM.

`CCCCC[C@H](O)/C=C/[C@H]1C(=O)C[C@H](O)[C@@H]1C/C=C\CCCC(=O)O` [PGD2] was tested, and the EC50 (h-DP1 [1]) was 0.3 nM, the EC50 [3, 4] was 0.3 nM and the “Effect at concentrations higher than 0.3 μM” value ([3]; human cavernosal tissue) was “caused contraction”. The “Concentration through which dose-dependent relaxation was seen” value ([3]; human cavernosal tissue, contraction at higher concentration) was ≤ 0.3 µM and the Ki (h-DP1 [2]) was 4.1 nM.

`CCCCC[C@H](O)/C=C/[C@H]1[C@H](O)CC(=O)[C@@H]1CCCCCCC(=O)O` [PGE1] gave an EC50 [3, 4] of 210 nM.
